Each structure is given as a SMILES string.

Results on 12 compounds are retold here after patent publication US20170037007A1, “SUBSTITUTED N-(2-(AMINO)-2OXOETHYL)BENZAMIDE INHIBITORS OF AUTOTAXIN AND THEIR PREPARATION AND USE IN THE TREATMENT OF LPA-DEPENDENT OR LPA-MEDIATED DISEASES” (X-Rx, Inc., priority 2014, published 2017).

This assay deals with T1, Autotaxin (Homo sapiens, UniProt Q13822).
T1 construct: purchased X-Chem
The assay can be described thus: Autotaxin LPC Cascade Assay. Format: biochemical. The following applies: 5 nM autotaxin, 100 μM LPC, choline oxidase/HRP/Ampliflu Red fluorescence readout; read-out: IC50 ATX activity values, IC50. The procedure:
Autotaxin LPC Cascade Assay
HA130 and Test Compounds:
Highest final concentration is […] for HA130 (Echelon, B-0701) and 30 μM for test compounds. Prepare a 1 mM stock of HA130 and a 3 mM stock of each compound in 100% DMSO. Perform a 1:3 serial dilution in DMSO (transfer 5 μl of compound to 10 μl of DMSO). Add 240 μl of buffer to generate a top working concentration of 40 µM (HA130) and 120 µM (test compound) in 4% DMSO.
Ampliflu Red—Prepare a stock of 5 mM from 100 mM in 100% DMSO. Further dilute to a working concentration of 400 μM in buffer (8% DMSO).
Together with compound this yields a 2% DMSO final concentration.
Choline Oxidase/HRP—0.8 U/ml CO and 8 U/ml HRP.
Add 5 μl of ATX and 5 μl of compound in a 384 well plate (Corning 3676). Incubate for 10 mins at RT. Add 5 μl of LPC and incubate for 1 hr on the plate shaker. Prepare the CO/HRP and AR prior to use. Add 2.5 μl of CO/HRP and follow with 2.5 μl AR. Note order of addition, CO/HRP mix before AR. Read fluorescence intensity (λex/λem: 530/590 nm) kinetically for 30 min at RT on the Tecan M1000.
Take `Cc1cccc(C(=O)N[C@@H](C(=O)N2CCC(C)(Nc3ccc(C#N)cc3)CC2)C(C)C)c1F` [Example 1, (R)—N-(1-(4-(4-Cyanophenylamino)-4-methylpiperidin-1-yl)-3-methyl-1-oxobutan-2-yl)-2-fluoro-3-methylbenzamide]: the IC50 – broadly, the midpoint of a concentration-inhibition curve – fell in the range of 500 to 5000 nM.

In the case of `Cc1cccc(C(=O)N[C@@H](C(=O)N2CCC(C)(Nc3cccc(C#N)c3)CC2)C(C)C)c1F` [Example 2, (R)—N-(1-(4-(3-Cyanophenylamino)-4-methylpiperidin-1-yl)-3-methyl-1-oxobutan-2-yl)-2-fluoro-3-methylbenzamide], the IC50 lay in the range of 5000 to 10000 nM.

In the case of `Cc1cccc(C(=O)N[C@@H](C(=O)N2CCC(C)(Nc3ccc(S(C)(=O)=O)cc3)CC2)C(C)C)c1F` [Example 3, (R)-2-Fluoro-3-methyl-N-(3-methyl-1-(4-methyl-4-(4-(methylsulfonyl)phenylamino)piperidin-1-yl)-1-oxobutan-2-yl)benzamide], the half-inhibitory concentration (IC50) is 500 to 5000 nM.

Regarding `CCc1ccc(F)c(C(=O)N[C@@H](C(=O)N2CCC(C)(Nc3ccc(S(C)(=O)=O)cc3)CC2)C(C)C)c1` [Example 4, (R)-5-Ethyl-2-fluoro-N-(3-methyl-1-(4-methyl-4-(4-(methylsulfonyl)phenylamino)piperidin-1-yl)-1-oxobutan-2-yl)benzamide], the IC50 was 10 to 100 nM.

For `COc1ccc(F)c(C(=O)N[C@@H](C(=O)N2CCC(C)(Nc3ccc(S(C)(=O)=O)cc3)CC2)C(C)C)c1` [Example 5, (R)-2-Fluoro-5-methoxy-N-(3-methyl-1-(4-methyl-4-(4-(methylsulfonyl)phenylamino)piperidin-1-yl)-1-oxobutan-2-yl)benzamide], the 50% inhibitory concentration (IC50) was 500 to 5000 nM.

On to `CC(C)[C@@H](NC(=O)c1cc(OC(F)(F)F)ccc1F)C(=O)N1CCC(C)(Nc2ccc(S(C)(=O)=O)cc2)CC1` [Example 6, (R)-2-Fluoro-N-(3-methyl-1-(4-methyl-4-(4-(methylsulfonyl)phenylamino)piperidin-1-yl)-1-oxobutan-2-yl)-5-(trifluoromethoxy)benzamide], for which the 50% inhibitory concentration (IC50) was 10 to 100 nM.

Take `CC(C)[C@@H](NC(=O)c1cccc(OC(F)(F)F)c1)C(=O)N1CCC(C)(Nc2ccccc2)CC1` [Example 7, (R)—N-(3-Methyl-1-(4-methyl-4-(phenylamino)piperidin-1-yl)-1-oxobutan-2-yl)-3-(trifluoromethoxy)benzamide]: the IC50 fell in the range of 500 to 5000 nM.

As to `COc1ccc(NC2(C)CCN(C(=O)[C@H](NC(=O)c3cccc(OC(F)(F)F)c3)C(C)C)CC2)cc1` [Example 8, (R)—N-(1-(4-((4-Methoxyphenyl)amino)-4-methylpiperidin-1-yl)-3-methyl-1-oxobutan-2-yl)-3-(trifluoromethoxy)benzamide], the concentration for half-maximal inhibition (IC50) lay in the range of 100 to 500 nM.

For the compound `CC(C)[C@@H](NC(=O)c1cccc(OC(F)(F)F)c1)C(=O)N1CCC(C)(Nc2ccc(C(=O)O)cc2)CC1` [Example 9, (R)-4-((4-Methyl-1-(3-methyl-2-(3-(trifluoromethoxy)benzamido)butanoyl)piperidin-4-yl)amino)benzoic acid], the IC50 fell in the range of 100 to 500 nM.

With `CC(C)[C@@H](NC(=O)c1cc(OC(F)(F)F)ccc1F)C(=O)N1CCC(C)(Nc2ccccc2)CC1` [Example 10, (R)-2-Fluoro-N-(3-methyl-1-(4-methyl-4-(phenylamino)piperidin-1-yl)-1-oxobutan-2-yl)-5-(trifluoromethoxy)benzamide], the IC50 fell in the range of 100 to 500 nM.

Turning to `CC(C)[C@@H](NC(=O)c1cc(OC(F)(F)F)ccc1F)C(=O)N1CCC(C)(Nc2ccc(C(=O)O)cc2)CC1` [Example 11, (R)-4-((1-(2-(2-Fluoro-5-(trifluoromethoxy)benzamido)-3-methylbutanoyl)-4-methylpiperidin-4-yl)amino)benzoic acic], the IC50 lay in the range of 100 to 500 nM.

Turning to `COc1ccc(NC2(C)CCN(C(=O)[C@H](NC(=O)c3cc(OC(F)(F)F)ccc3F)C(C)C)CC2)cc1` [Example 12, (R)-2-Fluoro-N-(1-(4-((4-methoxyphenyl)amino)-4-methylpiperidin-1-yl)-3-methyl-1-oxobutan-2-yl)-5-(trifluoromethoxy)benzamide], the 50% inhibitory concentration (IC50) fell in the range of 100 to 500 nM.
